Measured values: ChEMBL document CHEMBL1201862, “PubChem BioAssay data set” (2004)
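Exposure lasted 48 hours, with cells grown in 96-well plates and compounds tested at five concentrations. The concentration for 50% growth inhibition is given as GI50.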 Activity calls are given as the source filed them. Rule as the data show it: active = GI50 up to about 1.1 µM and inactive = higher.

Key:
Test in all cases: growth of human tumour cells (NCI), 48 h
NCI-H226 = test system: NCI-H226
UACC-62 = test system: UACC-62
SK-OV-3 = test system: SK-OV-3
NCI-H23 = test system: NCI-H23
LOX IMVI = test system: LOX IMVI
HCT-116 = test system: HCT-116
M14 = test system: M14
ACHN = test system: ACHN
HOP-92 = test system: HOP-92
786-0 = test system: 786-0
BT-549 = test system: BT-549
MDA-MB-435 = test system: MDA-MB-435
NCI-H522 = test system: NCI-H522
Malme-3M = test system: Malme-3M
HT-29 = test system: HT-29
NCI-H460 = test system: NCI-H460
RPMI-8226 = test system: RPMI-8226
SF-268 = test system: SF-268
MCF7 = test system: MCF7

Measured: GI50

CCC1(c2ccc(N3C(=O)c4cccc5cc([N+](=O)[O-])cc(c45)C3=O)cc2)CCC(=O)NC1=O (centres undefined)
inactive: NCI-H226 10.9 µM | UACC-62 21 µM | SK-OV-3 15 µM | NCI-H23 25.5 µM | LOX IMVI 11.9 µM | HCT-116 5.42 µM | M14 61.5 µM | ACHN 11.5 µM | HOP-92 2.16 µM | 786-0 7.38 µM | BT-549 13.5 µM | MDA-MB-435 24.3 µM | NCI-H522 1.81 µM | Malme-3M 20.1 µM | HT-29 20.5 µM | NCI-H460 6.35 µM | RPMI-8226 11.6 µM | SF-268 15.1 µM | MCF7 29.9 µM

COC(=O)[C@H](Cc1ccccc1)NC(=O)NCCN(CCNC(=O)N[C@@H](Cc1ccccc1)C(=O)OC)C(=O)N[C@@H](Cc1ccccc1)C(=O)OC
inactive: NCI-H226 18.2 µM | UACC-62 25.5 µM | SK-OV-3 31.9 µM | NCI-H23 18.9 µM | LOX IMVI 38.4 µM | HCT-116 20.3 µM | M14 25.6 µM | ACHN 24.5 µM | HOP-92 35.4 µM | 786-0 19.5 µM | BT-549 18.9 µM | MDA-MB-435 22.3 µM | NCI-H522 15.7 µM | Malme-3M 22 µM | NCI-H460 18.8 µM | RPMI-8226 25.3 µM | SF-268 17 µM | MCF7 26 µM

CC(C)(Br)C(=O)C(Br)Br
inactive: NCI-H226 16.7 µM | UACC-62 10.5 µM | SK-OV-3 17.5 µM | NCI-H23 4.61 µM | LOX IMVI 4.86 µM | HCT-116 4.26 µM | M14 2.44 µM | ACHN 10.5 µM | HOP-92 1.7 µM | 786-0 13.8 µM | BT-549 4.9 µM | MDA-MB-435 5.58 µM | NCI-H522 1.67 µM | Malme-3M 2.01 µM | HT-29 8.17 µM | NCI-H460 18.1 µM | SF-268 14 µM | MCF7 6.38 µM

COC(=NCCC1=CCCCC1)OC
inactive: UACC-62 > 100 µM | SK-OV-3 > 100 µM | NCI-H23 58.6 µM | HCT-116 32.8 µM | M14 21.1 µM | ACHN > 100 µM | HOP-92 31.6 µM | 786-0 81.3 µM | BT-549 > 100 µM | MDA-MB-435 71.6 µM | NCI-H522 32.4 µM | Malme-3M 31.2 µM | HT-29 18.2 µM | NCI-H460 57.1 µM | RPMI-8226 32.1 µM | SF-268 > 100 µM | MCF7 47.6 µM

Cc1ccc(-c2c(C#N)c(-c3ccc([N+](=O)[O-])cc3)c(C#N)c(=O)n2NS(=O)(=O)c2ccc(C)cc2)cc1
inactive: NCI-H226 > 100 µM | UACC-62 31 µM | SK-OV-3 36.6 µM | LOX IMVI 33.4 µM | HCT-116 36.6 µM | M14 54.1 µM | ACHN 51.9 µM | HOP-92 23.5 µM | 786-0 65 µM | BT-549 16.5 µM | MDA-MB-435 86.9 µM | NCI-H522 31.8 µM | Malme-3M 96.4 µM | HT-29 56.4 µM | NCI-H460 39.8 µM | RPMI-8226 18.9 µM | SF-268 79.3 µM | MCF7 24.9 µM

N#CCN(CC#N)C1CC=CCC1N(CC#N)CC#N (centres undefined)
inactive: NCI-H226 > 100 µM | UACC-62 > 100 µM | SK-OV-3 > 100 µM | NCI-H23 > 100 µM | LOX IMVI > 100 µM | HCT-116 > 100 µM | M14 > 100 µM | ACHN > 100 µM | HOP-92 > 100 µM | 786-0 > 100 µM | BT-549 > 100 µM | MDA-MB-435 > 100 µM | NCI-H522 > 100 µM | Malme-3M > 100 µM | HT-29 > 100 µM | NCI-H460 > 100 µM | RPMI-8226 > 100 µM | SF-268 > 100 µM | MCF7 > 100 µM
